2 compounds from patent US20180311334A1, “Compositions and Methods for Inducing an Immune Response” (Yale University, priority 2017, published 2018) can be followed below.

The test system of series [1] is murine bone marrow-derived macrophages. Nature of the series: qPCR of cytokine mRNA in bone marrow-derived macrophages (BMM). As to conditions: 1 μM soluble xyliquimod, 12 hours, WT and TLR7KO BMM. The class given is cell-based, C57BL/6 mice. As to the method: Finally, before leaving the sortase-based xyliquimod incorporation approach behind altogether, it was tested it in a more physiologically relevant experimental system. To this end, stimulations in murine bone marrow-derived macrophages (BMM) were performed and the resulting immune responses were assessed by quantifying expression of IL-1β, a pro-inflammatory cytokine transcriptionally regulated by NFκB. Besides more accurately recapitulating the physiological response to an immune stimulus than the RAW-NFκB-sLuc assay, the primary macrophage model offered two additional advantages over reporter cell lines. First, the dynamic range of qPCR analysis is far greater than that of the luciferase assay, so smaller differences in immune activation can be detected more readily. […]
After stimulation of BMDCs and BMMs, the supernatant was removed, cells were lysed, and RNA was isolated using the RNeasy kit (Qiagen, Germantown, Md.) according to manufacturer's instructions. cDNA was reverse-transcribed with an oligo(dT) primer using Moloney murine leukemia virus reverse transcriptase (MMLV RT). cDNA was analyzed in triplicate by qPCR amplification using SYBR Green Supermix (Life Technologies, Carlsbad, Calif.) on a Bio-Rad CFX96 Real-Time PCR Detection System (Bio-Rad, Hercules, Calif.). […]
(Real-time PCR tracks product formation cycle by cycle.)

The subject of a further series is WT S. aureus Newman. Nature of the series: S. aureus growth in presence of copper (optical density). The class given is cell-based, Staphylococcus aureus. As to conditions: 2 mM copper, 4.25 hours, absorbance at 600 nm. The protocol: WT S. aureus Newman was grown in the presence and absence of 2 mM copper for 4.25 hours. Growth was monitored by optical density: absorbance measurements were taken every 15 minutes at 600 nm.

`CCCCc1nc2c(N)nc3ccccc3c2n1Cc1ccc(CN)cc1` [xyliquimod, 1-(4-(aminomethyl)benzyl)-2-butyl-1Himidazo[4,5-c]quinolin-4-amine]: the “IL-1β mRNA expression” value in series [1] was “active in WT and not TLR7KO macrophages”.
With copper, in the series with WT S. aureus Newman, the S. aureus growth entry was “completely inhibit S. aureus growth”.
